According to US20140105921A1, “Prodrugs of Peptide Epoxy Ketone Protease Inhibitors” (Onyx Therapeutics, Inc., priority 2012, published 2014):
Like-named read-outs stand apart in the source and are kept apart here.

Tests used:
[1] = Conversion of Prodrugs by Human Liver S9; format: in vitro ADME
[2] = Buffer Conversion Rates of Prodrugs to Compound B; format: physicochemical
[3] = In vivo mouse PK of Compound A and PEG prodrugs; settings: for [Cmpd A]: BLOQ = below level of quantitation
[4] = biological target: c20s (Homo sapiens, UniProt P20618+P28074); experiment: Purified PI, IC50 against c20s; format: biochemical
[5] = biological target: i20s (Homo sapiens, UniProt P20618+P28062); experiment: Purified PI, IC50 against i20s; format: biochemical; settings: for IC50 60 minute point i20s: Table H; for IC50: Table G, read-out: IC50 Slope i20s
[6] = Table G, read-out: IC50 Slope c20s

For `COC[C@H](NC(=O)c1cnc(C)s1)C(=O)N[C@@H](COC)C(=O)N[C@@H](Cc1ccccc1)C(=O)[C@@](C)(CI)OC=O` [20-24], the “Human Liver S9 % Conversion @ 1 hour” value [1] was 29%.

In the case of `COC[C@H](NC(=O)c1cnc(C)s1)C(=O)N[C@@H](COC)C(=O)N[C@@H](Cc1ccccc1)C(=O)[C@](C)(O)CI` [20-1], the “Buffer pH = 7.4 % Conversion @ 1 hour” value [2] is reported as 24%.

With `COC[C@H](NC(=O)c1cnc(C)s1)C(=O)N[C@@H](COC)C(=O)N[C@@H](Cc1ccccc1)C(=O)[C@@](C)(CI)OC(=O)COc1ccccc1` [20-19] the “Human Liver S9 % Conversion @ 1 hour” value [1] was 7%.

For `COC[C@H](NC(=O)c1cnc(C)s1)C(=O)N[C@@H](COC)C(=O)N[C@@H](Cc1ccccc1)C(=O)[C@](C)(O)CCl` [20-2], the “Buffer pH = 7.4 % Conversion @ 1 hour” value [2] was 0%.

In the case of `CCCCS(=O)(=O)OC[C@@](C)(O)C(=O)[C@H](Cc1ccccc1)NC(=O)[C@H](COC)NC(=O)[C@H](COC)NC(=O)c1cnc(C)s1` [20-7], the “Buffer pH = 7.4 % Conversion @ 1 hour” value [2] is reported as 4.2%.

With `CCOC(=O)CCC(=O)O[C@](C)(CI)C(=O)[C@H](Cc1ccccc1)NC(=O)[C@H](COC)NC(=O)[C@H](COC)NC(=O)c1cnc(C)s1` [20-17] the “Human Liver S9 % Conversion @ 1 hour” value [1] was 1%.

In the case of `CCOC(=O)O[C@](C)(CI)C(=O)[C@H](Cc1ccccc1)NC(=O)[C@H](COC)NC(=O)[C@H](COC)NC(=O)c1cnc(C)s1` [20-25], the “Human Liver S9 % Conversion @ 1 hour” value [1] is reported as 14%.

For `COC[C@H](NC(=O)c1cnc(C)s1)C(=O)N[C@@H](COC)C(=O)N[C@@H](Cc1ccccc1)C(=O)[C@@](C)(CI)OC(=O)CCl` [20-23], the “Human Liver S9 % Conversion @ 1 hour” value [1] was 22%.

In the case of `COC[C@H](NC(=O)c1cnc(C)s1)C(=O)N[C@@H](COC)C(=O)N[C@@H](Cc1ccccc1)C(=O)[C@@](C)(CI)OC(=O)CCCCSC(C)=O` [20-10], the “Human Liver S9 % Conversion @ 1 hour” value [1] is reported as 3%.

With `COC[C@H](NC(=O)c1cnc(C)s1)C(=O)N[C@@H](COC)C(=O)N[C@@H](Cc1ccccc1)C(=O)[C@@](C)(CI)OC(=O)OCc1ccc(OC(C)=O)cc1` [20-22] the “Human Liver S9 % Conversion @ 1 hour” value [1] was 28%.

With `COC[C@H](NC(=O)c1cnc(C)s1)C(=O)N[C@@H](COC)C(=O)N[C@@H](Cc1ccccc1)C(=O)[C@@](C)(CI)OC(=O)CCCOC(C)=O` [20-13] the “Human Liver S9 % Conversion @ 1 hour” value [1] was 11%.

For `CC(C)C[C@H](NC(=O)[C@H](CCc1ccccc1)NC(=O)CN1CCOCC1)C(=O)N[C@@H](Cc1ccccc1)C(=O)N[C@@H](CC(C)C)C(=O)[C@@]1(C)CO1` [Cmpd A, (S)-4-methyl-N—((S)-1-(((S)-4-methyl-1-((R)-2-methyloxiran-2-yl)-1-oxopentan-2-yl)amino)-1-oxo-3-phenylpropan-2-yl)-2-((S)-2-(2-morpholinoacetamido)-4-phenylbutanamido)pentanamide], the “[Cmpd A]” value ([3]; Time 4 hr) was “BLOQ”, the “[Cmpd A]” value ([3]; Time 6 hr) was “BLOQ” and the “[Cmpd A]” value ([3]; Time 24 hr) was “BLOQ”. The concentration at 1 hr ([3]; plasma, Time 1 hr, read-out: [Cmpd A]) was 8 nM.

For `COC[C@H](NC(=O)c1cnc(C)s1)C(=O)N[C@@H](COC)C(=O)N[C@@H](Cc1ccccc1)C(=O)[C@@](C)(CI)OC(=O)OCc1oc(=O)oc1C` [20-15], the “Human Liver S9 % Conversion @ 1 hour” value [1] was 30%.

With `COC[C@H](NC(=O)c1cnc(C)s1)C(=O)N[C@@H](COC)C(=O)N[C@@H](Cc1ccccc1)C(=O)[C@@](C)(CI)OC(=O)Oc1ccccc1` [20-26] the “Human Liver S9 % Conversion @ 1 hour” value [1] was 32%.

For `COC[C@H](NC(=O)c1cnc(C)s1)C(=O)N[C@@H](COC)C(=O)N[C@@H](Cc1ccccc1)C(=O)[C@](C)(O)COS(=O)(=O)Cc1ccccc1` [compound 23], the “Buffer pH = 7.4 % Conversion @ 1 hour” value [2] was 9.6%.

With `COC[C@H](NC(=O)c1cnc(C)s1)C(=O)N[C@@H](COC)C(=O)N[C@@H](Cc1ccccc1)C(=O)[C@](C)(O)CBr` [20-3] the “Buffer pH = 7.4 % Conversion @ 1 hour” value [2] was 23%.

In the case of `COC[C@H](NC(=O)c1cnc(C)s1)C(=O)N[C@@H](COC)C(=O)N[C@@H](Cc1ccccc1)/C(=N/OC)[C@@]1(C)CO1`, the IC50 ([4]; IC50 60 minute point c20s, Table H, 60 minute point, value marked * (Table G: did not converge)) is reported as 2560 nM and the “IC50 60 minute point i20s” value [5] is reported as “inactive”.

For `CCOC(=O)C(=O)O[C@](C)(CI)C(=O)[C@H](Cc1ccccc1)NC(=O)[C@H](COC)NC(=O)[C@H](COC)NC(=O)c1cnc(C)s1` [20-16], the “Human Liver S9 % Conversion @ 1 hour” value [1] was 24%.

In the case of `COC[C@H](NC(=O)c1cnc(C)s1)C(=O)N[C@@H](COC)C(=O)N[C@@H](Cc1ccccc1)C(=O)[C@](C)(O)COS(=O)(=O)C1CCOCC1` [compound 22], the “Buffer pH = 7.4 % Conversion @ 1 hour” value [2] is reported as 9.8%.

Work on `CC(C)C[C@H](NC(=O)[C@H](CCc1ccccc1)NC(=O)CN1CCOCC1)C(=O)N[C@@H](Cc1ccccc1)C(=O)N[C@@H](CC(C)C)/C(=N/OCc1ccccc1)[C@@]1(C)CO1` yielded an IC50 [4, 6] of 539 nM and an IC50 [5] of 2180 nM.

For `COC[C@H](NC(=O)c1cnc(C)s1)C(=O)N[C@@H](COC)C(=O)N[C@@H](Cc1ccccc1)C(=O)[C@](C)(O)COS(=O)(=O)CC(F)F` [20-6], the “Buffer pH = 7.4 % Conversion @ 1 hour” value [2] was 5.7%.

With `COC[C@H](NC(=O)c1cnc(C)s1)C(=O)N[C@@H](COC)C(=O)N[C@@H](Cc1ccccc1)C(=O)[C@](C)(O)COP(=O)(c1ccccc1)c1ccccc1` the “IC50 60 minute point c20s” value ([4]; Table H, 60 minute point) was “inactive” and the “IC50 60 minute point i20s” value [5] was “inactive”.

With `CC(C)C[C@H](NC(=O)[C@H](CCc1ccccc1)NC(=O)CN1CCOCC1)C(=O)N[C@@H](Cc1ccccc1)C(=O)N[C@@H](CC(C)C)C(=O)[C@](C)(O)COP(=O)(c1ccccc1)c1ccccc1` the IC50 [4, 6] was 2670 nM and the IC50 ([5]; value marked *: did not converge) was 2550 nM.

With `COC[C@H](NC(=O)c1cnc(C)s1)C(=O)N[C@@H](COC)C(=O)N[C@@H](Cc1ccccc1)C(=O)[C@](C)(O)COC(C)=O` the “IC50 60 minute point c20s” value ([4]; Table H, 60 minute point) was “inactive” and the “IC50 60 minute point i20s” value [5] was “inactive”.
